The source of these data is patent US20250367084A1, “Micellar Composition” (Phytoceutical Limited, priority 2022, published 2025).

For data set [1] the following is noted: cited from earlier work.
For data set [2], the system named is adult human dermal fibroblast (HDFa) cells. As to the kind of experiment: Cytotoxicity of retinol (Presto Blue / WST-1). Format: cell-based. The note with it: 24 h exposure. (In general: Tetrazolium dyes change colour on reduction, which living cells bring about.)
Description: The cytotoxicity of retinol was determined.
Experiment 1: A solution of retinol (20 mg/mL) in ethanol (absolute) was prepared. The solution was diluted to 2 mg/mL, forming a light yellow emulsion. The emulsion was diluted in optiMem to provide concentrations of 5, 2.5, 1.25, 0.625 and 0.31 μg/mL retinol. Untreated and detergent controls were included for comparison. Using a Presto Blue assay, adult human dermal fibroblast (HDFa) cells (5 k per well) were exposed to the solutions for 24 h.
Experiment 2: A solution of retinol (20 mg/mL) in 1,2-propanediol was prepared. The solution was diluted to 2 mg/mL, forming an off-white emulsion. The emulsion was diluted in optiMem to provide concentrations of 10, 5, 2.5, 1.25, 0.625 and 0.31 μg/mL retinol. Untreated and detergent controls were included for comparison. Using a WST-1 probe, HDFa cells (5 k per well) were exposed to the solutions for 24 h.
Experiment 3: A solution of retinol (20 mg/mL) in ethanol (absolute) was prepared. The solution was diluted to 2 mg/mL, forming an light yellow emulsion. The emulsion was diluted in optiMem to provide concentrations of 10, 5, 2.5, 1.25, 0.625 and 0.31 μg/mL retinol. Untreated and detergent controls were included for comparison. Using a WST-1 probe, HDFa cells (5 k per well) were exposed to the solutions for 24 h.

SMILES strings stand for the structures. Some results are limits rather than exact numbers.

As to `C=C(C)[C@@H]1CCC(C)=C[C@H]1c1c(O)cc(CCCCC)cc1O` [CBD, cannabidiol], the lipophilicity (log P) in data set [1] is on record as roughly 6.3.

For `CC1=C(/C=C/C(C)=C/C=C/C(C)=C/CO)C(C)(C)CCC1` [retinol, Retinol], in data set [2] (5 k cells per well), the “concentration at which retinol is cytotoxic to the HDFa cell line” value was no less than 10000 ng/mL. Also, the “cytotoxicity at concentration below 10 μg/mL” value in data set [2] (concentration below 10 μg/mL) is “only little, if any, cytotoxicity”.

The log P is the decadic logarithm of the partition coefficient of the neutral form, usually between octanol and water.
